From patent publication US6562819B2, “Compounds for inhibition of ceramide-mediated signal transduction” (The Regents of the University of California, priority 1994, dated 2003)
Read-outs that look alike come from different tables or passages of the source.

Legend:
TNF-α production [1] = assay: ELISA for TNF-α production by LPS stimulated human monocytes; assay type: cell-based; details: Concentration of compound which inhibited the product of TNFα by 50% of control, read-out: TNFαIC50
Protocol: Peripheral blood mononuclear cells were isolated from normal human blood on Hypaque-Ficoll density gradients. A portion of the isolated cells were further purified by adherence to gelatin coated flasks.
100 μl aliquots of monocytes were placed onto 96 well microtiter plates at a density of 5×10^5 cells/ml in RPMI-1640 medium containing 10% fetal bovine serum. After incubation for 24 hrs., various concentrations of the test compounds (FIG. 5) were added to the plated cells in a volume of 100 μl and incubated for 1 hr. After incubation, 1 μg/ml of LPS was added to each well.
18 hrs. after exposure of the plated cells to LPS, 100 μl of medium was collected from each well and assayed (by ELISA) for release of TNF-α, using recombinant human TNF as a standard. The sensitivity of the assay ranged from 10-100 pg/ml.

TNF-α production [2] = assay: LPS induced TNF-α production by human macrophages; assay type: cell-based; details: 0.1-1000 μM; result in words
Protocol: Human macrophages were cultured in 96 well microtiter plates and incubated with LPS. μAliquots of the stimulated cells were then incubated with, respectively, 0.1, 1, 10, 100 or 1000 μM of 1I-49, compound 37 and a commercially available isoquinoline (6,7-dimethoxy-1(2H)-isoquinoline from μAldrich Chemical; labelled S52-626-6 in FIG. 10) which, like the compounds of the invention, has an oxygen ortho to a ring nitrogen but, unlike the compounds of the invention, lacks a side chain substituent as described above (1L-49 is representative of the isoquinolone compounds of the invention having the side chain substituents described elsewhere above). The inhibitory efficacy of each compound was measured as a function of TNF-α reduction in μg/ml.

| Compound | IC50 (TNF-α production [1]; Monocyte) [µM] | melting point | IC50 (TNF-α production [1]) [µM] | inhibition of LPS induced TNF-α production (TNF-α production [2]) |
| --- | --- | --- | --- | --- |
| CCOC(=O)CCCn1c(=O)c2ccccc2n(C)c1=O [Compound 52, Ethyl 1-Methyl-1,4-dihydro-2,4-dioxo-3(2H)-quinazolinebutanoate] | 55 | – | – | – |
| Cn1c(=O)[nH]c(=O)c2[nH]c(S)nc21 [Compound 25, 3-Methyl-8-thiouric Acid] | > 200 | > 320 °C | – | – |
| CCCn1c(=O)n(CCCC(=O)OCC)c(=O)c2c1ncn2C [Compound 31, ethyl 4-(2,3,6,7-tetrahydro-2,6-dioxo-7-methyl-3-n-propyl-1H-purin-1-yl)butonoic acid] | – | – | 5 | – |
| COc1cc2cc[nH]c(=O)c2cc1OC [S52, 626-6, 6,7-dimethoxy-1(2H)-isoquinoline] | – | – | – | mild inhibitory activity |
| CCCCCCn1c(=O)c2[nH]c(=O)[nH]c2n(C)c1=O [Compound 24, 1-n-Hexyl-3-methyluric Acid] | 50 | > 295 °C (dec.) | – | – |
